Reference: patent US5853748A, “Pharmaceutical compositions” (priority 1994, dated 1998)
Like-named read-outs stand apart in the source and are kept apart here.

Key:
[1] = for pH: water
Source text: (§1) The amount of agent necessary to adjust the pH to within the range contemplated is difficult to determine directly because the intestinal pH can vary between 5 to 7, and its aqueous content can vary, as can its intrinsic buffering capacity, which acts to maintain a low pH. Consequently considerations aimed at determining the appropriate quantity of agent controlling pH need to take into account a "worst-case" scenario. An indication may be obtained by observing the pH achieved upon adding a potential pH-adjusting agent to a 50 mM solution of MES (morpholino ethane sulphonic acid) adjusted to pH 6.0.
A 0.1M solution of sodium bicarbonate in distilled water was prepared (buffer solution). Similar 0.1M solutions of sodium acetate, sodium borate and sodium carbonate in distilled water were also prepared. These are also referred to in the examples as buffers.

[2] = for pH: MES
Source text: as §1

Caco-2 cells [3] = assay: in vitro
Protocol: (§2) A neutral red stock solution was prepared at concentration of 0.5 mg/ml in DMEM (Dulbecco's Modified Eagle Medium) (pH 4.5) which was then diluted 1:10 with TCM (Tissue Culture Medium) or Hanks Balanced Salt Solution (HBSS) before use.
(§3) Test solutions were prepared containing various concentrations of a bile salt in either HBSS or in one of the 0.1M buffer solution. The following bile salts were tested:
(§4) Test plates were set up by aliquotting 200 μl of a Caco-2 cell suspension containing 1×10^5 cells/ml into each well of a 96-well microtitre plate. The outermost wells were filled with 200 μl saline alone, to counteract the effects of evaporation. The cells were incubated in high glucose Dulbecco's modified eagles medium (DMEM) tissue culture medium (TCM) at […], 5% CO2 in air, for 8 days, with feeding where necessary. The cells were then used for performance of either an initial insult or a recovery study.
(§5) B. Recovery from Toxic Insult
(§6) Neutral red stain is actively taken up by viable cells and non-viable cells will not stain. Cells with increased cell membrane permeability will have a reduced stain content. […] A 2-hour exposure period is used together with a 3-hour recovery period in optimal growth material during which stain is taken up. The following protocol was followed:
(§7) TCM was removed from each well and replaced with 150 μl of the appropriate buffer.
(§8) Buffer was removed from wells in column 2 and replaced with 150 μl of test solutions at the highest concentration.
(§9) 150 μof test solutions was added to each of wells in column 3, mixed gently by aspirating repeatedly, and 150 μl transferred to wells in column 4. This process was repeated down the plate to obtain two-fold serial dilutions of test material along each row. One row on each plate was allocated to HBSS as a control, and one row for a buffer control if necessary. The cells were incubated for 2 hours at 37° C. in CO2.
(§10) The supernatant liquid was then removed from cell monolayers in each well and replaced with 200 μl of stain.
(§11) The plates were incubated for 3 hours at 37° C., 5% CO2. […]

Caco-2 cells [4] = assay: in vitro; remark: listed apart in the source
Protocol: as §3
(§12) A MTT stock solution was prepared at a concentration of 5 mg/ml in distilled water, which was then diluted 1:10 with TCM before use.
(§13) Test plates were set up by aliquotting 200 μl of a Caco-2 cell suspension containing 1×10^5 cells/ml into wells of a 96-well microtitre plate. The outermost wells on each plate were left blank, and filled with 200 μl saline, to counteract the effects of evaporation. The cells were is incubated in high glucose DMEM tissue culture medium (TCM) at 37° C., 5% CO2 in air, for 8 days, with feeding when necessary.
(§14) MTT is a tetrazolium salt which is converted by mitochondrial dehydrogenases in viable cells to form an insoluble purple crystal. Dead cells would not effect this conversion. Crystal formation can be quantified colorimetrically and used to asses mitochondrial activity and therefore cell viability. The preparation of MTT stock solution, test solutions and buffer solution is described above.
(§15) In this procedure, cells are first incubated with test materials and then incubated with MTT and measurements are made to determine the extent to which incubation with test materials has altered the mitochondrial activity of the cells. A two hour exposure period is used together with a three hour recovery period during which time staining is conducted.
(§16) TCM was removed from each well and replaced with 150 Al of the appropriate buffer.
as §8
(§17) 150 μl of test solutions was added to each of wells in column 3, mixed gently by aspirating repeatedly, and 150 μl transferred to wells in column 4. This process was repeated down the plate to obtain two-fold serial dilutions of test material along each row. […]
(§18) Absorbances were measured on a plate reader as the difference between 550 and 650 nm, and readings compared with buffer controls to assess change in mitochondrial activity. […]

[5] = sodium cholate (Kojima et al); cited from earlier work
[6] = cited from earlier work
in vitro [7] = settings: human, hbss
Protocol: as §2, §3
as §4, with “study. […]” for “study.”
Neutral red stain is actively taken up by viable cells. Cells with more permeable membranes will lose stain into the bathing medium and thus cell membrane permeability can be directly assessed after exposure to the test material by quantifying the stain remaining in the cell. […]
In order to quantify the amount of stain remaining in the cells, absorbances were measured on a plate reader at 550 nm, and readings compared with buffer controls to assess leakage of the stain from the cells. […]

in vitro [8] = settings: human, hbss; remark: listed apart in the source
Protocol: as §2, §3, §4, §5, §6, §7, §8, §9, §10, §11

in vitro [9] = settings: human, hbss; remark: listed apart in the source
Protocol: as §3, §12, §13, §14, §15, §16, §8, §17, §18

[10] = at the pH values contemplated (7.5 to 9); cited from earlier work
[11] = In vivo efficacy study, salmon calcitonin, intrajejunal, pigs (plasma calcium); parameters: species or system Pigs (large white×large white/landrace); settings: […] iu sCT intrajejunal in 2 ml, with 25 or 50 mg sodium chenodeoxy cholate, pH 7.5 or 6.5
Protocol: Dosing of salmon calcitonin (sCT) was administered by instillation via the indwelling cannula into the jejunum, followed by flushing with warm sterile water. 8 ml blood samples were removed at various times before and after dosing, and divided into two portions. One portion was allowed to clot at room temperature, and the serum removed and stored at -20° C. until ready for use. The other portion was transferred to heparinised tubes to which 4000 kiu aprotinin was added, and the plasma decanted after centrifugation and stored at -20° C. Serum calcium levels were measured colorimetrically after complexation with the calcium-sensitive chelating agent arsenazo III.
Nine animals were used in the study, and formulations were administered on three separate days, each separated by at least one day, on a random three-way crossover basis, so that all pigs received all three treatments.

Molecule: O=C(O)O [Bicarbonate, sodium bicarbonate]
- pH ([1]; 0.002 M): 8.86
- pH ([1]; 0.004 M): 8.67
- pH ([1]; 0.008 M): 8.63
- pH ([1]; 0.016 M): 8.57
- pH ([1]; 0.031 M): 8.55
- pH ([1]; 0.062 M): 8.49
- pH of 0.1M solution ([1]; 0.1M, confirmed at the end of each of the experiments): ~8.0
- pH ([1]; 0.500 M): 8.16
- pH ([1]; 1.000 M): 8.02
- pH of saturated solution ([1]; saturated (<2M) in water): 8.01
- pH ([2]; 0.002 M): 6.42
- pH ([2]; 0.004 M): 6.58
- pH ([2]; 0.008 M): 6.86
- pH ([2]; 0.016 M): 7.14
- pH ([2]; 0.031 M): 7.40
- pH ([2]; 0.062 M): 7.68
- pH ([2]; 0.500 M): 8.05
- pH ([2]; 1.000 M): 7.96
- pH in the gut ([2]; about 0.045M (about 40 mg sodium bicarbonate in 10 ml)): about 7.5

Molecule: C[C@H](CCC(=O)O)[C@H]1CC[C@H]2[C@@H]3[C@H](O)C[C@@H]4C[C@H](O)CC[C@]4(C)[C@H]3CC[C@]12C [Chenodeoxycholate, sodium chenodeoxycholate]
- percentage release of stain (FIG. 4) (Caco-2 cells [3]): much less stain is released from cells which have been incubated at pH above 7.5
- percentage reduction in mitochondrial activity (FIG. 5) (Caco-2 cells [4]): a marked reduction in toxicity is achieved under conditions of elevated pH

Molecule: C[C@H](CCC(=O)O)[C@H]1CC[C@H]2[C@@H]3[C@H](O)C[C@@H]4C[C@H](O)CC[C@]4(C)[C@H]3C[C@H](O)[C@]12C [Cholate, sodium cholate]
- release of cell membrane components [5]: accelerated
- absorption of various substances ([6]; sodium cholate (Kojima et al)): capable of increasing the absorption of various substances

Molecule: C[C@H](CCC(=O)NCC(=O)O)[C@H]1CC[C@H]2[C@@H]3[C@H](O)C[C@@H]4C[C@H](O)CC[C@]4(C)[C@H]3C[C@H](O)[C@]12C [Glycocholate, sodium glycocholate]
- bioavailability of various substances ([6]; in combination with taurocholate or glycocholate (Kakemi et al)): could be increased

Molecule: C[C@H](CCC(=O)NCC(=O)O)[C@H]1CC[C@H]2[C@@H]3CC[C@@H]4C[C@H](O)CC[C@]4(C)[C@H]3C[C@H](O)[C@]12C [Glycodeoxycholate, sodium glycodeoxycholate]
- MNTC at 2 h (in vitro [7]): 313 µg/mL
- MNTC at 2 h (in vitro [8]): 313 µg/mL
- MNTC at 2 h (in vitro [9]): 313 µg/mL

Molecule: C[C@H](CCC(=O)NCCS(=O)(=O)O)[C@H]1CC[C@H]2[C@@H]3CC[C@@H]4C[C@H](O)CC[C@]4(C)[C@H]3C[C@H](O)[C@]12C [Taurodeoxycholate, sodium taurodeoxycholate]
- MNTC at 2 h (in vitro [7]): 313 µg/mL
- MNTC at 2 h (in vitro [8]): 313 µg/mL
- MNTC at 2 h (in vitro [9]): 313 µg/mL

Molecule: insulin
- solubility [10]: poorly soluble

Molecule: salmon calcitonin [sCT]
- efficacy of bile salts in enhancing uptake of calcitonin (plasma calcium concentration with time, FIG. 6) [11]: dependent on the concentration of bile salt present, and the pH at which it is administered

Molecule: somatostatin
- bioavailability of somatostatin ([6]; with a cholanic acid derivative such as chenodeoxycholic acid or ursodeoxycholic acid (GB-A-2244918)): can be improved
